Data set [1] in a line: Cytotoxicity against human U373MG cells at 1 to 100 uM after 24 hrs by LDH assay. The format is cell-based. The following applies: u-373mg atcc.
Data set [2] is described as follows: Cytotoxicity against human U373MG cells at 1 to 100 uM after 24 hrs by MTT assay. The data set is classed as cell-based. The note with it: u-373mg atcc. On the technique in general: Tetrazolium dyes change colour on reduction, which living cells bring about.
Data set [3] deals with T1, Nuclear factor erythroid 2-related factor 2 (Homo sapiens) (UniProt Q16236).
T1 sequence (whole entry): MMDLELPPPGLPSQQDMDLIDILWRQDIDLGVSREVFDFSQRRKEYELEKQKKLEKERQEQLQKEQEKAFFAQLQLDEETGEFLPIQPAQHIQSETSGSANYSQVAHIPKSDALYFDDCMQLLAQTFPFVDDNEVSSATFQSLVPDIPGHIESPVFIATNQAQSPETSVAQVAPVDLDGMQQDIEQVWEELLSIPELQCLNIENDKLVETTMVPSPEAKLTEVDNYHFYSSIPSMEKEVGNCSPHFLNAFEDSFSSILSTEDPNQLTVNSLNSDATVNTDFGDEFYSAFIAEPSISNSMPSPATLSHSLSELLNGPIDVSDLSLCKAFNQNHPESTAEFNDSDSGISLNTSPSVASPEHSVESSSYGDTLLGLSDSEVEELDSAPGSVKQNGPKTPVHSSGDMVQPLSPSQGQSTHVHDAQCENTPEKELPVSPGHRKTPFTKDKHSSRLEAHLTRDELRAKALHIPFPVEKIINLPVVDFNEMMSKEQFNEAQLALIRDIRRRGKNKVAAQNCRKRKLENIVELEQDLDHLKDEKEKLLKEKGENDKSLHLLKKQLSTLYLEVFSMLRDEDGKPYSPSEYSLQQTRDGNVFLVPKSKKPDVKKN
Nature of the data set: Induction of Nrf2-mediated CAT protein expression in H2O2-stimulated human U373MG cells preincubated at 10 uM for 24 hrs before H2O2 challenge by Western blot method. The data set is classed as cell-based. The following applies: U-373MG ATCC.

Data set [4] in a line: Antioxidant activity in human U373MG cells assessed as reduction in H2O2-induced ROS production preincubated at 5 to 10 uM for 24 hrs before H2O2 challenge by DCFH-DA assay relative to untreated control. The data set is classed as functional, U-373MG ATCC.
Data set [5] concerns the target T1, Nuclear factor erythroid 2-related factor 2 (Homo sapiens). The data set is described as follows: Induction of Nrf2-mediated HO-1 protein expression in H2O2-stimulated human U373MG cells preincubated at 10 uM for 24 hrs before H2O2 challenge by Western blot method. The format is cell-based. The note with it: U-373MG ATCC.
The target is the same in data set [6]. Nature of the data set: Induction of Nrf2-mediated HO-1 protein expression in H2O2-stimulated human U373MG cells preincubated at 5 uM for 24 hrs before H2O2 challenge by Western blot method. The data set is classed as cell-based. The following applies: U-373MG ATCC.
The target is the same in data set [7]. The data set is described as follows: Induction of Nrf2-mediated glutathione reductase protein expression in H2O2-stimulated human U373MG cells preincubated at 10 uM for 24 hrs before H2O2 challenge by Western blot method. The format is cell-based. The note with it: U-373MG ATCC.
Data set [8] shares this target. Nature of the data set: Induction of Nrf2-mediated glutathione reductase protein expression in H2O2-stimulated human U373MG cells preincubated at 5 uM for 24 hrs before H2O2 challenge by Western blot method. The note with it: U-373MG ATCC. The format is cell-based. In general terms: In western blotting, separated proteins are transferred to a membrane and probed.

The target is the same in data set [9]. Nature of the data set: Induction of Nrf2-mediated GPx protein expression in H2O2-stimulated human U373MG cells preincubated at 10 uM for 24 hrs before H2O2 challenge by Western blot method. The data set is classed as cell-based. The following applies: U-373MG ATCC.
Data set [10] shares this target. The data set is described as follows: Induction of Nrf2-mediated GPx protein expression in H2O2-stimulated human U373MG cells preincubated at 5 uM for 24 hrs before H2O2 challenge by Western blot method. The format is cell-based. The following applies: U-373MG ATCC.
In data set [11] the test system is U373 MG. The data set is described as follows: Induction of HO-1 activity in human U373MG cells assessed as bilirubin production per mg protein preincubated at 5 uM for 24 hrs before H2O2 challenge by fluorimetric method (reference value: 19.6 +/-3.5 pmol/hr/mg protein). The format is functional, U-373MG ATCC.
Data set [12] has as its system U373 MG. The data set is described as follows: Induction of total GPx activity in human U373MG cells assessed as […] per mg protein preincubated at 10 uM for 24 hrs before H2O2 challenge by fluorimetric method (reference value: 58.5 +/- 5.1 nmol/min/mg protein). The data set is classed as functional, U-373MG ATCC.
Data set [13] relates to U373 MG. Nature of the data set: Induction of selenium-dependent GPx activity in human U373MG cells assessed as […] per mg protein preincubated at 10 uM for 24 hrs before H2O2 challenge by fluorimetric method (reference value: 14.7 +/- 2.9 nmol/min/mg protein). The data set is classed as functional, U-373MG ATCC.
Data set [14] has as its system U373 MG. The data set is described as follows: Induction of selenium-dependent GPx activity in human U373MG cells assessed as […] per mg protein preincubated at 5 uM for 24 hrs before H2O2 challenge by fluorimetric method (reference value: 14.7 +/- 2.9 nmol/min/mg protein). The format is functional, U-373MG ATCC.
The test system of data set [15] is U373 MG. Nature of the data set: Inhibition of AAPH-induced oxidative stress in human U373MG cells assessed as peroxy radical scavenging activity at 10 uM by ORAC assay. The following applies: U-373MG ATCC. The format is functional, cell-based.
Data set [16] has as its system U373 MG. Nature of the data set: Inhibition of H2O2-induced oxidative stress in human U373MG cells assessed as GSH/GSSG ratio at 10 uM (reference value: 1.8 +/- 0.1 ). The format is functional, U-373MG ATCC.
For data set [17], the system named is U-373MG ATCC. Nature of the data set: Antioxidant activity in human U373MG cells assessed as reduction in H2O2-induced cytotoxicity preincubated for 24 hrs before H2O2 challenge by LDH assay. The data set is classed as functional, cell-based.
Data set [18] has as its system U-373MG ATCC. The data set is described as follows: Antioxidant activity in human U373MG cells assessed as reduction in H2O2-induced cytotoxicity preincubated for 24 hrs before H2O2 challenge by MTT assay. The data set is classed as functional, cell-based.
Data set [19] relates to U-373MG ATCC. Nature of the data set: Antioxidant activity in human U373MG cells assessed as reduction in H2O2-induced cytotoxicity preincubated at 5 uM for 24 hrs before H2O2 challenge by MTT assay. The data set is classed as functional, cell-based.
A short description of data set [20]: Cytotoxicity against human U373MG cells at > 10 uM after 24 hrs by MTT assay. The format is cell-based. The following applies: u-373mg atcc.
Data set [21] concerns U-373MG ATCC. Nature of the data set: Antioxidant activity in human U373MG cells assessed as reduction in H2O2-induced cytotoxicity preincubated at 10 uM for 24 hrs before H2O2 challenge by LDH assay. The format is functional, cell-based.
Data set [22] deals with U-373MG ATCC. The data set is described as follows: Antioxidant activity in human U373MG cells assessed as reduction in H2O2-induced cytotoxicity preincubated at 5 uM for 24 hrs before H2O2 challenge by LDH assay. The format is functional, cell-based.
The subject of data set [23] is U-373MG ATCC. The data set is described as follows: Antioxidant activity in human U373MG cells assessed as reduction in H2O2-induced cytotoxicity preincubated at 10 uM for 24 hrs before H2O2 challenge by MTT assay. The format is functional, cell-based.
Data set [24] can be described thus: Cytotoxicity against human U373MG cells at > 50 uM after 24 hrs by MTT assay. The format is cell-based. The note with it: u-373mg atcc.
In data set [25] the test system is U-373MG ATCC. Nature of the data set: Antioxidant activity in human U373MG cells assessed as reduction in H2O2-induced ROS production preincubated at 10 uM for 24 hrs before H2O2 challenge by DCFH-DA assay. The format is functional, cell-based.
Data set [26] deals with U-373MG ATCC. Nature of the data set: Antioxidant activity in human U373MG cells assessed as reduction in H2O2-induced ROS production preincubated at 5 uM for 24 hrs before H2O2 challenge by DCFH-DA assay. The format is functional, cell-based.

Active and inactive are the calls of the source. No cut-off for these calls is given here.

For `C=CC(=C)CC[C@H]1[C@]2(C)CCC[C@](C)(CO)[C@H]2[C@H](O)C[C@]1(C)O` [ANDALUSOL], the Activity entry in data set [1] is “Non-toxic”; in data set [2] it was “Non-toxic”; with U373 MG [11] it was 30.6 pmol/h; in the data set on U373 MG [12] it was 82.4 nmol/min; with U373 MG [13], 29.9 nmol/min; in the data set with U373 MG [14] it was 23.9 nmol/min. In addition, the Activity entry in the data set on U-373MG ATCC [17] and with U-373MG ATCC [18] was “Dose-dependent effect” in each case. For the same compound, the result in [3], in [5], in data set [6], in [7], in [8] and in data set [9] was Active. In addition, in data set [10], the outcome was Active. Further, the Ratio came to 1.4 in data set [4] and 5.7 in the data set with U373 MG [16]. The result with U373 MG [15] was inactive.

In the case of `CC1(C)CCC[C@]2(C)[C@@H]1C[C@H](O)[C@@]13C=C[C@@](CO)(C1)[C@H](O)C[C@@H]23` [CONCHITRIOL], the outcome in the data set with U-373MG ATCC [19], in the data set with U-373MG ATCC [21], in the data set on U-373MG ATCC [22] and with U-373MG ATCC [23] was Active. The Activity result in data set [20] was “Toxic”; in the data set with U373 MG [11], 15.9 pmol/h; in the data set on U373 MG [12] it was 52.6 nmol/min; with U373 MG [13], 19.4 nmol/min; with U373 MG [14] it was 17.6 nmol/min. For the same compound, the outcome (in data set [3]; in data set [9]; in data set [10]; with U373 MG [15]) was inactive. Also, the Ratio in the data set on U373 MG [16] is 2.3.

Take `CC1(C)CCC[C@H]2C1=CC[C@H]1C[C@@](C)([C@@H](O)CO)C[C@@H](O)[C@@]12C` [LAGASCATRIOL]: the Activity result is “Toxic” in data set [24]; 28.6 pmol/h in the data set on U373 MG [11]; 85.2 nmol/min in the data set with U373 MG [12]; 27.1 nmol/min in the data set with U373 MG [13]; 22.8 nmol/min in the data set with U373 MG [14]; “Dose-dependent effect” in the data set on U-373MG ATCC [17]. Also, the Activity entry with U-373MG ATCC [18] was “Dose-dependent effect”. In addition, the result in data set [3], in [5], in data set [6], in data set [7], in data set [8] and in data set [9] was Active. In addition, the result (in [10]; in the data set with U-373MG ATCC [25]; with U-373MG ATCC [26]) was Active. Besides, the result in the data set on U373 MG [15] was inactive. Also, the Ratio in the data set on U373 MG [16] is 4.2.

For the origin of these results see ChEMBL document CHEMBL2176906, “Diterpenoids isolated from Sideritis species protect astrocytes against oxidative stress via Nrf2” (J Nat Prod, 2012).
